This is an account of results in paper PMC4167698, “Fatty Acid Esters of Phloridzin Induce Apoptosis of Human Liver Cancer Cells through Altered Gene Expression” (PLoS ONE, 2014).

The subject of data set [1] is LNCaP prostate cancer cells. The arrangement: method as in PMID 20714300. Conditions: 100 µM; cited from earlier work.
The subject of data set [2] is MDA-MB-231 cells. The data set can be described thus: MTS cell proliferation assay, MDA-MB-231. The format is cell-based, human. Conditions: Homo sapiens, MTS. Here is the method: Cell viability was determined by using the MTS assay. In brief, HepG2 cells (5×10^3 cells/100 µL/well), MDA-MB-231 (5×10^3 cells/100 µL/well), THP-1 (25×10^3/100 µL/well), normal human and rat hepatocytes (1×10^4 cells/100 µL/well) were plated in triplicate, in a 96 well sterile flat bottom tissue culture plates. […] Thereby, cells were exposed to various concentrations (0.1, 1, 10, 25, 50, 75, 100 µM) of each treatment. Controls consist of cells with media containing DMSO (<0.5%), test blank wells contained the test compound in media with no cells and blank wells contained media with no cells. After additional 3, 6, 12, 18 or 24 h, 20 µL of the MTS reagent in combination with the electron coupling agent, phenazine methosulfate were added to the wells and cells were incubated in a humidified incubator for 3 h. Absorbance at 490 nm (OD490) was measured by using a Flurostar Optima microplate reader (BMG Labtech, Cary, NC, USA) to obtain the number of viable cells relative to the control population. Percentage of viability of the test compound treated cells are expressed as percentage compared to control (<0.5% DMSO). […] The selective index (SI) of the fatty acid esters of phloridzin is defined as the ratio of cytotoxicity (EC50 values) on normal HP-F cells to solid cancer HepG2, MDA-MB-231 cells (SI = EC50 on HP-F cells/EC50 on solid cancer cells). Samples with SI values greater than three were considered to have high selectivity towards cancer cells.

The test system of data set [3] is DNA topo IIα. The arrangement: method as in PMID 7769390. Conditions: cited from earlier work.
Data set [4] concerns HepG2 cells. Description: LDH release cytotoxicity assay. Type of data set: cell-based, human. Conditions: HepG2, 100 µM, 6 h, relative to maximum release by 1% Triton X-100. On the procedure:
Lactate dehydrogenase (LDH) is a stable cytosolic enzyme that is released upon membrane damage in apoptotic/necrotic cells. LDH activity was measured using CytoTox 96 Non-Radioactive Cytotoxicity Assay (Promega, Madison, WI, USA), in which LDH released in culture supernatants is measured with a coupled enzymatic assay, resulting in conversion of a tetrazolium salt into a red formazan product. […] After centrifugation, the supernatant was removed to an assay plate, and the LDH released from the cells into culture medium was measured. The maximal release was obtained after treating control cells with 1% Triton X-100 for 30 min at room temperature. The apoptotic/necrotic percentage was expressed using the formula: (sample value/maximal release)×100%.
(In general: LDH in the medium is a marker of cell lysis.)

The test system of data set [5] is HepG2 cells. Description: Mitochondrial membrane potential (JC-1). Conditions: HepG2, 100 µM, 24 h. The format is cell-based, human. On the procedure: HepG2 cells were seeded in a black walled clear bottom 96-well sterile flat bottom tissue culture plates (BD Biosciences, USA) at a density of 5×10^4 cells/well (100 µL) and incubated in a CO2 incubator for 24 h at 37°C. […] The staining solution JC-1 was prepared with PBS and 5 µM was added to each well. The cells were further incubated in a CO2 incubator at 37°C for 1 h. After washing the plate with PBS twice, the fluorescence was measured using a Fluostar Optima microplate reader (BMG Labtech) at 535 nm for JC-1 monomers and at 590 nm for JC-1 aggregates.

The subject of data set [6] is normal human hepatocytes (HP-F). Description: MTS cell viability assay, normal human hepatocytes. The format is cell-based. The conditions noted are these: Hepatocyte, 24 h. The method in brief: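 MTS read-out (OD490, 3 h with PMS) after 3, 6, 12, 18 or 24 h exposure to 0.1–100 µM compound; HepG2 and MDA-MB-231 at 5×10^3 cells/well, human and rat hepatocytes at 1×10^4 cells/well, triplicate.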

Data set [7] deals with HepG2 cells. The data set can be described thus: Morphologic observation under inverted phase contrast microscope. Type of data set: cell-based, human. The conditions noted are these: HepG2, 100 µM, 24 h. Here is the method: After 24 h of treatment, the morphology of HepG2 cells was observed under an inverted phase contrast microscope (Nikon Eclipse E 100, Nikon, Mississauga, ON, Canada) and were captured at 400X magnification using Infinity digital microscopy camera (Lumenera corporation, Ottawa, ON, Canada).

In data set [8] the test system is B16 mouse melanoma cells. The arrangement: method as in PMID 17827407. Conditions: antitumor activity study of apple polyphenols; cited from earlier work.
The conditions of data set [9]: glycosylation at 2-OH; cited from earlier work.
The test system of data set [10] is BALB-MC.E12 mouse mammary tumor cells. The arrangement: method as in PMID 17827407. Conditions: antitumor activity study of apple polyphenols; cited from earlier work.

Each structure is given as a SMILES string.

`O=C(CCc1ccc(O)cc1)c1c(O)cc(O)cc1O` [Phloretin]: the “TRAIL-induced apoptosis and cytotoxicity” value in [1] is “augmented”. Further, the 50% effective concentration (EC50) (as a rule, the midpoint of the concentration-response curve) in [2] (MDA-MB-231, 3 h) was greater than 100 µM; in [2] (MDA-MB-231, 6 h), greater than 100 µM; in [2] (MDA-MB-231, 12 h), greater than 100 µM; in [2] (MDA-MB-231, 18 h), greater than 100 µM; in data set [2] (MDA-MB-231, 24 h), greater than 100 µM. The “DNA topo IIα unknotting activity” value in data set [3] is listed as “inhibit DNA topo IIα unknotting activity”. Also, the LDH release in data set [4] is 7.9±0.5%. In addition, the mitochondrial membrane potential entry in [5] was “significant (P<0.05) reduction”.
Take `O=C(CCc1ccc(O)cc1)c1c(O)cc(O)cc1O[C@@H]1O[C@H](CO)[C@@H](O)[C@H](O)[C@H]1O` [Phloridzin, phloretin 2′-O-glucoside]: the concentration giving a half-maximal response (EC50) is greater than 100 µM in [6]; greater than 100 µM in data set [2] (MDA-MB-231, 3 h); greater than 100 µM in data set [2] (MDA-MB-231, 6 h); greater than 100 µM in data set [2] (MDA-MB-231, 12 h); greater than 100 µM in [2] (MDA-MB-231, 18 h); greater than 100 µM in [2] (MDA-MB-231, 24 h). Also, the apoptotic morphological changes entry in data set [7] is recorded as “no effect”. Also, in data set [8], the “proliferation of transplanted B16 mouse melanoma cells” value was “did not affect the proliferation”. Moreover, in data set [9], the “decrease of antioxidant activities in comparison to phloretin” value is on record as 18 times. In [10], the “proliferation of BALB-MC.E12 mouse mammary tumor cells” value was “did not affect the proliferation”.
